Test results as given in ChEMBL document CHEMBL1177750, “Cellular localization of clathridimine, an antimicrobial 2-aminoimidazole alkaloid produced by the Mediterranean calcareous sponge Clathrina clathrus” (2010).

Legend:
Format in all cases: functional
Candida albicans = assay: Antimicrobial activity against Candida albicans ATCC 66029 at 100 ug/well after 24 hrs at 30 degC by agar diffusion assay; conditions: ATCC 66029, 24 h, read-out: DIZ
Escherichia coli = assay: Antimicrobial activity against Escherichia coli ATCC 8739 at 100 ug/well after 24 hrs at 37 degC by agar diffusion assay; conditions: ATCC 8739, 24 h, read-out: DIZ
Staphylococcus aureus = assay: Antimicrobial activity against Staphylococcus aureus ATCC 6538 at 100 ug/well after 24 hrs at 37 degC by agar diffusion assay; conditions: ATCC 6538, 24 h, read-out: DIZ

SMILES	zone of inhibition at 100 µg/disc (Candida albicans)	zone of inhibition at 100 µg/disc (Escherichia coli)	zone of inhibition at 100 µg/disc (Staphylococcus aureus)
CCC(C)n1ncn(-c2ccc(N3CCN(c4ccc(OCC5COC(Cn6cncn6)(c6ccc(Cl)cc6Cl)O5)cc4)CC3)cc2)c1=O (centres undefined) [ITRACONAZOLE]	21 mm	–	–
CN1C(=N)N=C(Nc2nc(Cc3ccc4c(c3)OCO4)cn2C)C1=O [CLATHRIDIMINE]	24 mm	15 mm	0 mm
CN1C(=O)N=C(Nc2nc(Cc3ccc4c(c3)OCO4)cn2C)C1=O [CLATHRIDINE]	18 mm	0 mm	0 mm
NC[C@H]1O[C@H](O[C@H]2[C@H](O)[C@@H](O[C@H]3O[C@H](CO)[C@@H](O)[C@H](N)[C@H]3O)[C@H](N)C[C@@H]2N)[C@H](O)[C@@H](O)[C@@H]1O [KANAMYCIN]	–	38 mm	37 mm
